Source: patent US4782052A, “Octahydroindolo[2,3-a]quinolizin-1-yl-alkanecarboxylic acid amines and their therapeutically useful acid addition salts, pharmaceutical compositions containing them and process for preparing same” (Richter Gedeon Vegyeszeti Gyar Rt., priority 1984, dated 1988)
Where two headings read alike, the source gives them in different places.

Tests used:
[1] = system: Indomethacin-induced intestinal ulceration; experiment: Inhibition of the Indomethacin-induced intestinal ulceration; type: in vivo, H-Wistar rats; conditions: for Tensile strength of the intestinal wall at 24 hours after the last treatment: 3 consecutive days, ± S.E.M., Indomethacin control 72 ± 10, untreated 237 ± 4; for Resistance of the intestinal wall as % of the normal value: Indomethacin control 30
Procedure: Inhibition of the Indomethacin-induced intestinal ulceration Unstarved H-Wistar rats weighing 120 to 150 g. were used for these investigations. The animals were orally treated with Indomethacin. Under these conditions a period of 24 to 48 hours is at least required for the development of visually observable intestinal ulcers. For evaluating the small intestine ulcers, the tensile strength of the intestinal wall was determined by using the inflation method of Ezer and Sporny (1975), as the strength of the intestinal wall is diminished by the ulceration-induced erosion. The small intestine from the pylorus down to the caecum was removed and after ligation of the end it was connected through a polyethylene tube with a W+W electronic BP 8005 pressure recorder (Ugo Basile, Italy). The whole small intestine was placed into a 0.9% saline solution at 37° C. and the pressure was increased until air bubbles appeared at the attenuated (weakened) sites of the intestinal wall. This pressure as expressed in mmHg is the measure of the tensile strength.

[2] = system: ethanolic hydrochloric acid-induced gastric edema and hemorrhagic lesions; experiment: Inhibition of the ethanolic hydrochloric acid-induced gastric necrosis; type: in vivo, Female RG-Wistar rats; conditions: for Hemorrhagic lesions / Edema: ± S.E.M.; for Hemorrhagic lesions: control 132 ± 7; for Edema: control 349 ± 81; for ED50: Rattus norvegicus, oral
Procedure: Inhibition of the ethanolic hydrochloric acid-induced gastric necrosis Female RG-Wistar rats weighing 120 to 150 g. were used for these investigations. The animals were starved for 24 hours while receiving water ad libitum. […] The test substances were orally administered 30 minutes before the treatment with the ethanolic hydrochloric acid. One hour later the animals were killed by an overdose of ether. Their stomach was removed and cut along the major curvature. The stomach was cleaned and its wet weight was weighed. The gastric edema was calculated from the difference between the obtained wet weight and the wet weight of the stomach of the untreated animals. Thereafter, the stomach was dried at room temperature and the presence of the hemorrhagic lesions was visually observed on the next day. The degree of the gastric necrosis was characterized by the mean value of the damage in mm./stomach. The results were statistically evaluated by Student's test.

Oral toxicity in rats = conditions: rat, in vivo
[3] = system: aspirin-induced stomach ulcer; experiment: Inhibition of the aspirin-induced stomach ulcer in rats; type: in vivo, Female H-Wistar rats; conditions: for No. of ulcers per stomach: ± S.E.M., aspirin control 16.6 ± 5
Procedure: Inhibition of the aspirin-induced stomach ulcer in rats
This test is very common in the pharmacological practice. Female H-Wistar rats weighing 120 to 150 g. were starved for 24 hours while receiving water ad libitum. The stomach ulcer was induced by the oral administration of 100 mg./kg. aspirin in a Tween 80 suspension. The test substance was given immediately after the aspirin treatment. At the end of the 4th hour after treatment the animals were killed by an overdose of ether, their stomach was excised and cut along the major curvature. The stomach content was washed out and the hemorrhagic lesions on the glandular surface were counted.

[4] = system: gastric acid secretion in Shay rats; experiment: Inhibition of the gastric acid secretion in Shay rats; type: in vivo, Female H-Wistar rats; conditions: for HCl output (4 hours): N 5, control 520 ± 28
Procedure: Inhibition of the gastric acid secretion in Shay rats
Female H-Wistar rats weighing 120 to 150 g were starved for 24 hours while receiving water ad libitum. Then, the pylorus of the animals was ligated under a mild ether anesthesia. The test substances were administered orally or intraperitoneally. After 4 hours the animals were killed by an overdose of ether and after excision of the stomach, the volume and pH value of the gastric juice were measured. The acid content was determined by titration against 0.01N sodium hydroxide solution by using phenolphthalein as indicator.

[5] = 3 × (50 + 10) mg./kg. p.o. with Indomethacin
[6] = 3 × (25 + 10) mg./kg. p.o. with Indomethacin
[7] = 50 mg./kg. p.o., p < 0.01 vs control

CN/C(=N/CCSCc1nc[nH]c1C)NC#N [Cimetidine, reference compound]
Tensile strength of the intestinal wall at 24 hours after the last treatment [1, 5]: 20 ± 25 mmHg | Resistance of the intestinal wall as % of the normal value [1, 5]: 8% | Edema Inhibition ([2]; 100 mg./kg. p.o.): 14% | Hemorrhagic lesions Inhibition ([2]; 100 mg./kg. p.o., p < 0.01 vs control): 69% | Hemorrhagic lesions ([2]; 100 mg./kg. p.o., N 8): 42 ± 13 mm. | Edema ([2]; 100 mg./kg. p.o., N 8): 301 ± 42 mg

CC[C@@]1(CCC(=O)N[C@H](C)c2ccccc2)CCCN2CCc3c([nH]c4ccccc34)[C@@H]21 [RGH-2961, (-)-(1S,12bS)-1-ethyl-1,2,3,4,6,7,12,12b-octahydroindolo[2,3-a]quinolizin-1-yl-propionic acid (R)-1-phenylethylamide]
LD50 (Oral toxicity in rats): > 1500 mg/kg | No. of ulcers per stomach ([3]; 5 mg./kg. p.o. + aspirin 100 mg./kg., N 10): 7.1 ± 2 | Inhibition ([3]; 5 mg./kg. p.o., p < 0.01 vs aspirin control): 58% | Inhibition ([3]; 10 mg./kg. p.o.): 32% | No. of ulcers per stomach ([3]; 10 mg./kg. p.o. + aspirin 100 mg./kg., N 10): 11.0 ± 3 | No. of ulcers per stomach ([3]; 20 mg./kg. p.o. + aspirin 100 mg./kg., N 20): 3.5 ± 2.1 | Inhibition ([3]; 20 mg./kg. p.o., p < 0.01 vs aspirin control): 79% | No. of ulcers per stomach ([3]; 50 mg./kg. p.o. + aspirin 100 mg./kg., N 10): 2.5 ± 1.5 | Inhibition ([3]; 50 mg./kg. p.o., p < 0.01 vs aspirin control): 85% | ED50 ([3]; Rattus norvegicus, 4 h, aspirin-induced gastric ulcer formation, oral): 8 mg/kg | Tensile strength of the intestinal wall at 24 hours after the last treatment ([1]; 3 × (12 + 10) mg./kg. p.o. with Indomethacin): 132 ± 16 mmHg | Tensile strength of the intestinal wall at 24 hours after the last treatment [1, 6]: 195 ± 8 mmHg | Resistance of the intestinal wall as % of the normal value [1, 6]: 82% | Tensile strength of the intestinal wall at 24 hours after the last treatment [1, 5]: 214 ± 6 mmHg | Resistance of the intestinal wall as % of the normal value [1, 5]: 90% | Resistance of the intestinal wall as % of the normal value ([1]; p.o. with Indomethacin): 55% | Edema Inhibition ([2]; 1 mg./kg. p.o.): 0% | Hemorrhagic lesions Inhibition ([2]; 1 mg./kg. p.o.): 36% | Hemorrhagic lesions ([2]; 1 mg./kg. p.o., N 7): 88 ± 28 mm. | Edema ([2]; 1 mg./kg. p.o., N 7): 345 ± 93 mg | Edema Inhibition ([2]; 10 mg./kg. p.o.): 44% | Hemorrhagic lesions Inhibition ([2]; 10 mg./kg. p.o., p < 0.01 vs control): 62% | Hemorrhagic lesions ([2]; 10 mg./kg. p.o., N 7): 51 ± 9 mm. | Edema ([2]; 10 mg./kg. p.o., N 7): 197 ± 52 mg | Edema Inhibition [2, 7]: 85% | Hemorrhagic lesions Inhibition [2, 7]: 88% | Hemorrhagic lesions ([2]; 50 mg./kg. p.o., N 7): 17 ± 6 mm. | Edema ([2]; 50 mg./kg. p.o., N 7): 53 ± 41 mg | ED50 ([2]; gastric edema, read-out: oral ED50 value of the gastric edema inhibition): 12.5 mg/kg | ED50 ([2]; hemorrhagic lesions, read-out: oral ED50 value of the gastric hemorrhagic lesion inhibition): 3 mg/kg | HCl output inhibition ([4]; 6 mg./kg. i.p.): 19% | HCl output (4 hours) ([4]; 6 mg./kg. i.p., ± S.E.M.): 425 ± 40 μmole/100 g. of body weight | HCl output inhibition ([4]; 10 mg./kg. p.o.): 8% | HCl output (4 hours) ([4]; 10 mg./kg. p.o., ± S.E.M.): 483 ± 40 μmole/100 g. of body weight | HCl output inhibition ([4]; 12 mg./kg. i.p., p < 0.01 vs control): 63% | HCl output (4 hours) ([4]; 12 mg./kg. i.p., ± S.E.M.): 195 ± 25 μmole/100 g. of body weight | HCl output inhibition ([4]; 20 mg./kg. p.o.): 10% | HCl output (4 hours) ([4]; 20 mg./kg. p.o., ± S.E.M.): 468 ± 35 μmole/100 g. of body weight | HCl output inhibition ([4]; 25 mg./kg. i.p.): 100% | HCl output (4 hours) ([4]; 25 mg./kg. i.p.): 0 μmole/100 g. of body weight | HCl output inhibition ([4]; 40 mg./kg. p.o.): 22% | HCl output (4 hours) ([4]; 40 mg./kg. p.o., ± S.E.M.): 409 ± 30 μmole/100 g. of body weight

CN1CCN(CC(=O)N2c3ccccc3C(=O)Nc3cccnc32)CC1 [Pirenzepine, reference compound]
Tensile strength of the intestinal wall at 24 hours after the last treatment [1, 5]: 121 ± 26 mmHg | Resistance of the intestinal wall as % of the normal value [1, 5]: 51%
